From the supplement of paper PMC8612539
In brackets after ≈: the same amount, converted by molar mass.

Test system: Escherichia coli
Assay: minimum inhibitory concentration (MIC)
Procedure: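 Broth microdilution MIC (Sensititre BOPO7F bovine plate, CLSI methods) of 19 antimicrobials against field isolates of P. multocida, M. haemolytica, H. somni (deep nasopharyngeal swabs) and E. coli, Enterococcus spp. (rectal swabs) from weaned dairy heifers. Incubation 16-24 h at 35 C. MIC is the lowest concentration preventing visible growth. Values with <= or > lie at the tested range limits. Trimethoprim-sulfamethoxazole is given as the trimethoprim component of a 1:19 mixture.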

## CC[C@H]1OC(=O)C[C@@H](O)[C@H](C)[C@@H](O[C@@H]2O[C@H](C)[C@@H](O)[C@H](N(C)C)[C@H]2O)[C@@H](CCN2C[C@H](C)C[C@H](C)C2)C[C@@H](C)C(=O)/C=C/C(C)=C/[C@@H]1CO[C@@H]1O[C@H](C)[C@@H](O)[C@@H](OC)[C@H]1OC [Tilmicosin]
Isolate (source animal id): 8
  minimum inhibitory concentration: > 16 µg/mL
Isolate (source animal id): 9
  minimum inhibitory concentration: > 16 µg/mL
Isolate (source animal id): 10
  minimum inhibitory concentration: > 16 µg/mL
Isolate (source animal id): 11
  minimum inhibitory concentration: > 16 µg/mL
Isolate (source animal id): 12
  minimum inhibitory concentration: > 16 µg/mL
Isolate (source animal id): 13
  minimum inhibitory concentration: > 16 µg/mL
Isolate (source animal id): 14
  minimum inhibitory concentration: > 16 µg/mL
Isolate (source animal id): 15
  minimum inhibitory concentration: > 16 µg/mL
Isolate (source animal id): 16
  minimum inhibitory concentration: > 16 µg/mL
Isolate (source animal id): 98
  minimum inhibitory concentration: > 16 µg/mL
Isolate (source animal id): 99
  minimum inhibitory concentration: > 16 µg/mL
Isolate (source animal id): 100
  minimum inhibitory concentration: > 16 µg/mL
Isolate (source animal id): 101
  minimum inhibitory concentration: > 16 µg/mL
Isolate (source animal id): 102
  minimum inhibitory concentration: > 16 µg/mL
Isolate (source animal id): 103
  minimum inhibitory concentration: > 16 µg/mL
Isolate (source animal id): 104
  minimum inhibitory concentration: > 16 µg/mL
Isolate (source animal id): 105
  minimum inhibitory concentration: > 16 µg/mL
Isolate (source animal id): 106
  minimum inhibitory concentration: > 16 µg/mL
Isolate (source animal id): 107
  minimum inhibitory concentration: > 16 µg/mL
Isolate (source animal id): 108
  minimum inhibitory concentration: > 16 µg/mL
Isolate (source animal id): 109
  minimum inhibitory concentration: > 16 µg/mL
Isolate (source animal id): 110
  minimum inhibitory concentration: > 16 µg/mL
Isolate (source animal id): 111
  minimum inhibitory concentration: > 16 µg/mL
Isolate (source animal id): 112
  minimum inhibitory concentration: > 16 µg/mL
Isolate (source animal id): 113
  minimum inhibitory concentration: > 16 µg/mL
Isolate (source animal id): 114
  minimum inhibitory concentration: > 16 µg/mL
Isolate (source animal id): 115
  minimum inhibitory concentration: > 16 µg/mL
Isolate (source animal id): 116
  minimum inhibitory concentration: > 16 µg/mL
Isolate (source animal id): 117
  minimum inhibitory concentration: > 16 µg/mL
Isolate (source animal id): 118
  minimum inhibitory concentration: > 16 µg/mL
Isolate (source animal id): 119
  minimum inhibitory concentration: > 16 µg/mL
Isolate (source animal id): 120
  minimum inhibitory concentration: > 16 µg/mL
Isolate (source animal id): 121
  minimum inhibitory concentration: > 16 µg/mL
Isolate (source animal id): 122
  minimum inhibitory concentration: > 16 µg/mL
Isolate (source animal id): 123
  minimum inhibitory concentration: > 16 µg/mL
Isolate (source animal id): 124
  minimum inhibitory concentration: > 16 µg/mL
Isolate (source animal id): 125
  minimum inhibitory concentration: 16 µg/mL (≈ 18.4 µM)
Isolate (source animal id): 126
  minimum inhibitory concentration: > 16 µg/mL
Isolate (source animal id): 127
  minimum inhibitory concentration: > 16 µg/mL
Isolate (source animal id): 128
  minimum inhibitory concentration: > 16 µg/mL
Isolate (source animal id): 129
  minimum inhibitory concentration: > 16 µg/mL
Isolate (source animal id): 130
  minimum inhibitory concentration: > 16 µg/mL
Isolate (source animal id): 131
  minimum inhibitory concentration: > 16 µg/mL
Isolate (source animal id): 132
  minimum inhibitory concentration: > 16 µg/mL
Isolate (source animal id): 133
  minimum inhibitory concentration: > 16 µg/mL
Isolate (source animal id): 134
  minimum inhibitory concentration: > 16 µg/mL
Isolate (source animal id): 135
  minimum inhibitory concentration: > 16 µg/mL
Isolate (source animal id): 136
  minimum inhibitory concentration: > 16 µg/mL
Isolate (source animal id): 137
  minimum inhibitory concentration: > 16 µg/mL
Isolate (source animal id): 138
  minimum inhibitory concentration: > 16 µg/mL
Isolate (source animal id): 139
  minimum inhibitory concentration: > 16 µg/mL
Isolate (source animal id): 140
  minimum inhibitory concentration: > 16 µg/mL
Isolate (source animal id): 141
  minimum inhibitory concentration: > 16 µg/mL
Isolate (source animal id): 142
  minimum inhibitory concentration: > 16 µg/mL
Isolate (source animal id): 143
  minimum inhibitory concentration: > 16 µg/mL
Isolate (source animal id): 144
  minimum inhibitory concentration: > 16 µg/mL
Isolate (source animal id): 145
  minimum inhibitory concentration: > 16 µg/mL
Isolate (source animal id): 146
  minimum inhibitory concentration: > 16 µg/mL
Isolate (source animal id): 147
  minimum inhibitory concentration: > 16 µg/mL
Isolate (source animal id): 148
  minimum inhibitory concentration: > 16 µg/mL
Isolate (source animal id): 149
  minimum inhibitory concentration: > 16 µg/mL
Isolate (source animal id): 150
  minimum inhibitory concentration: > 16 µg/mL
Isolate (source animal id): 151
  minimum inhibitory concentration: > 16 µg/mL
Isolate (source animal id): 152
  minimum inhibitory concentration: > 16 µg/mL
Isolate (source animal id): 153
  minimum inhibitory concentration: > 16 µg/mL
Isolate (source animal id): 154
  minimum inhibitory concentration: > 16 µg/mL
Isolate (source animal id): 155
  minimum inhibitory concentration: > 16 µg/mL
Isolate (source animal id): 156
  minimum inhibitory concentration: > 16 µg/mL
Isolate (source animal id): 157
  minimum inhibitory concentration: > 16 µg/mL
Isolate (source animal id): 158
  minimum inhibitory concentration: > 16 µg/mL
Isolate (source animal id): 159
  minimum inhibitory concentration: > 16 µg/mL
Isolate (source animal id): 160
  minimum inhibitory concentration: > 16 µg/mL
Isolate (source animal id): 161
  minimum inhibitory concentration: > 16 µg/mL
Isolate (source animal id): 162
  minimum inhibitory concentration: > 16 µg/mL
Isolate (source animal id): 163
  minimum inhibitory concentration: > 16 µg/mL
Isolate (source animal id): 164
  minimum inhibitory concentration: > 16 µg/mL
Isolate (source animal id): 165
  minimum inhibitory concentration: > 16 µg/mL
Isolate (source animal id): 166
  minimum inhibitory concentration: > 16 µg/mL
Isolate (source animal id): 167
  minimum inhibitory concentration: > 16 µg/mL
Isolate (source animal id): 168
  minimum inhibitory concentration: > 16 µg/mL
Isolate (source animal id): 169
  minimum inhibitory concentration: > 16 µg/mL
Isolate (source animal id): 170
  minimum inhibitory concentration: > 16 µg/mL
Isolate (source animal id): 171
  minimum inhibitory concentration: > 16 µg/mL
Isolate (source animal id): 172
  minimum inhibitory concentration: > 16 µg/mL
Isolate (source animal id): 173
  minimum inhibitory concentration: > 16 µg/mL
Isolate (source animal id): 174
  minimum inhibitory concentration: > 16 µg/mL
Isolate (source animal id): 175
  minimum inhibitory concentration: > 16 µg/mL
Isolate (source animal id): 176
  minimum inhibitory concentration: > 16 µg/mL
Isolate (source animal id): 177
  minimum inhibitory concentration: > 16 µg/mL
Isolate (source animal id): 178
  minimum inhibitory concentration: > 16 µg/mL
Isolate (source animal id): 179
  minimum inhibitory concentration: > 16 µg/mL
Isolate (source animal id): 180
  minimum inhibitory concentration: > 16 µg/mL
Isolate (source animal id): 181
  minimum inhibitory concentration: > 16 µg/mL
Isolate (source animal id): 182
  minimum inhibitory concentration: > 16 µg/mL
Isolate (source animal id): 183
  minimum inhibitory concentration: > 16 µg/mL
Isolate (source animal id): 184
  minimum inhibitory concentration: > 16 µg/mL
Isolate (source animal id): 185
  minimum inhibitory concentration: > 16 µg/mL
Isolate (source animal id): 186
  minimum inhibitory concentration: > 16 µg/mL
Isolate (source animal id): 187
  minimum inhibitory concentration: > 16 µg/mL
Isolate (source animal id): 188
  minimum inhibitory concentration: > 16 µg/mL
